Measured values taken from PubChem BioAssay (NCI).
Several values for one entry are separate records, joined by “and”; a condition that tells them apart may be missing. Identical values can stand only once.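 In this assay, cells in 96-well plates receive the compound at five concentrations for 48 hours. Endpoints are linearly interpolated between the surrounding concentrations. GI50: concentration for 50% inhibition of growth. TGI marks complete inhibition of growth.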

How the values were obtained:
Experiment in all cases: NCI anticancer screen, dose series, 48 h
[1] = test system: OVCAR-4 ovarian
[2] = test system: HCC-2998 colon
[3] = test system: SN12C renal
[4] = test system: NCI-H522 lung
[5] = test system: A498 renal
[6] = test system: UO-31 renal
[7] = test system: OVCAR-5 ovarian
[8] = test system: DMS 273 small cell lung
[9] = test system: LXFL 529 NSCLC
[10] = test system: OVCAR-3 ovarian
[11] = test system: UACC-257 melanoma
[12] = test system: HCT-116 colon
[13] = test system: RXF 393 renal
[14] = test system: OVCAR-8 ovarian
[15] = test system: HCT-15 colon
[16] = test system: HT29 colon
[17] = test system: CCRF-CEM leukemia
[18] = test system: IGROV1 ovarian
[19] = test system: M14 melanoma
[20] = test system: K-562 leukemia
[21] = test system: RPMI-8226 leukemia
[22] = test system: SK-OV-3 ovarian
[23] = test system: KM20L2 colon
[24] = test system: DLD-1 colon
[25] = test system: EKVX NSCLC
[26] = test system: HOP-18 NSCLC
[27] = test system: SNB-78 CNS
[28] = test system: SNB-19 CNS
[29] = test system: NCI-H226 lung
[30] = test system: SNB-75 CNS
[31] = test system: MALME-3M melanoma
[32] = test system: DMS 114 small cell lung
[33] = test system: NCI-H460 lung
[34] = test system: UACC-62 melanoma
[35] = test system: SF-539 CNS
[36] = test system: MOLT-4 leukemia
[37] = test system: KM12 colon
[38] = test system: ACHN renal
[39] = test system: SF-268 CNS
[40] = test system: 786-0 renal
[41] = test system: SF-295 CNS
[42] = test system: COLO 205 colon
[43] = test system: RXF-631 renal
[44] = test system: SK-MEL-28 melanoma
[45] = test system: HOP-62 NSCLC
[46] = test system: NCI-H23 lung
[47] = test system: SW-620 colon
[48] = test system: A549 NSCLC
[49] = test system: XF 498 CNS
[50] = test system: HOP-92 NSCLC
[51] = test system: LOX IMVI melanoma
[52] = test system: CAKI-1 renal
[53] = test system: U251 CNS
[54] = test system: SK-MEL-5 melanoma
[55] = test system: SK-MEL-2 melanoma
[56] = test system: TK-10 renal
[57] = test system: HL-60(TB) leukemia
[58] = test system: M19-MEL melanoma
[59] = test system: SR leukemia

## Cc1cccc(Cl)c1NC(=O)c1cccc([N+](=O)[O-])c1O
[1]
  TGI: > 100 µM
[2]
  TGI: > 100 µM
[3]
  TGI: > 100 µM
[4]
  TGI: 50.4 µM
[5]
  TGI: > 100 µM
[6]
  TGI: 59.5 µM
[7]
  TGI: > 100 µM
[8]
  TGI: > 100 µM
[9]
  TGI: > 100 µM
[10]
  TGI: 76.4 µM
[11]
  TGI: > 100 µM
[12]
  TGI: > 100 µM
[13]
  TGI: 50.7 µM
[14]
  TGI: > 100 µM
[15]
  TGI: > 100 µM
[16]
  TGI: > 100 µM
[17]
  TGI: > 100 µM
[18]
  TGI: > 100 µM
[19]
  TGI: > 100 µM
[20]
  TGI: > 100 µM
[21]
  TGI: 64.6 µM
[22]
  TGI: > 100 µM
[23]
  TGI: > 100 µM
[24]
  TGI: > 100 µM
[25]
  TGI: > 100 µM
[26]
  TGI: > 100 µM
[27]
  TGI: > 100 µM
[28]
  TGI: > 100 µM
[29]
  TGI: 95.9 µM
[30]
  TGI: > 100 µM
[31]
  TGI: 84.7 µM
[32]
  TGI: 83.1 µM
[33]
  TGI: > 100 µM
[34]
  TGI: 93.9 µM
[35]
  TGI: 85.2 µM
[36]
  TGI: > 100 µM
[37]
  TGI: 66 µM
[38]
  TGI: > 100 µM
[39]
  TGI: 96.5 µM
[40]
  TGI: > 100 µM
[41]
  TGI: > 100 µM
[42]
  TGI: > 100 µM
[43]
  TGI: > 100 µM
[44]
  TGI: > 100 µM
[45]
  TGI: 54.4 µM
[46]
  TGI: 85.1 µM
[47]
  TGI: > 100 µM
[48]
  TGI: > 100 µM
[49]
  TGI: > 100 µM
[50]
  TGI: 69.6 µM
[51]
  TGI: 82.9 µM
[52]
  TGI: > 100 µM
[53]
  TGI: > 100 µM

## O=[N+]([O-])c1ccc2nc3ccscc-3c2c1
[1]
  TGI: 31.4 µM
[2]
  TGI: 34.1 µM
[4]
  TGI: 59.9 µM
[5]
  TGI: 53.3 µM
[6]
  TGI: > 100 µM
[7]
  TGI: > 100 µM
[8]
  TGI: > 100 µM
[9]
  TGI: 27.3 µM
[10]
  TGI: > 100 µM
[11]
  TGI: > 100 µM
[15]
  TGI: > 100 µM
[16]
  TGI: > 100 µM
[17]
  TGI: > 100 µM
[18]
  TGI: > 100 µM
[19]
  TGI: 32.4 µM
[20]
  TGI: > 100 µM
[21]
  TGI: 44.1 µM
[22]
  TGI: 86.3 µM
[23]
  TGI: 94.9 µM
[54]
  TGI: 33.1 µM
[55]
  TGI: 77.7 µM
[24]
  TGI: > 100 µM
[25]
  TGI: > 100 µM
[26]
  TGI: > 100 µM
[27]
  TGI: 90 µM
[28]
  TGI: > 100 µM
[29]
  TGI: > 100 µM
[31]
  TGI: > 100 µM
[32]
  TGI: 39.6 µM
[33]
  TGI: 49.4 µM
[56]
  TGI: > 100 µM
[34]
  TGI: 65.6 µM
[35]
  TGI: 50.4 µM
[36]
  TGI: > 100 µM
[37]
  TGI: 83.6 µM
[57]
  TGI: 30.4 µM
[38]
  TGI: > 100 µM
[39]
  TGI: > 100 µM
[40]
  TGI: > 100 µM
[41]
  TGI: > 100 µM
[42]
  TGI: 34.8 µM
[43]
  TGI: > 100 µM
[44]
  TGI: > 100 µM
[45]
  TGI: 69.4 µM
[46]
  TGI: 70.2 µM
[47]
  TGI: > 100 µM
[58]
  TGI: 61.8 µM
[48]
  TGI: 89.9 µM
[49]
  TGI: 87.2 µM
[50]
  TGI: 25.7 µM
[51]
  TGI: 85.9 µM
[52]
  TGI: 26.2 µM
[53]
  TGI: 85.3 µM

## CC(=O)OCC1OC(n2c(=S)n(-c3ccccc3)c(=O)c3cc(Br)ccc32)C(OC(C)=O)C(OC(C)=O)C1OC(C)=O (centres undefined)
[1]
  GI50: 10.6 µM and > 100 µM
  TGI: > 100 µM
[2]
  TGI: > 100 µM
[3]
  TGI: > 100 µM
[4]
  TGI: > 100 µM
[5]
  TGI: > 100 µM
[6]
  TGI: > 100 µM
[7]
  TGI: > 100 µM
[8]
  TGI: > 100 µM
[9]
  TGI: > 100 µM
[10]
  TGI: > 100 µM
[11]
  TGI: > 100 µM
[12]
  GI50: > 100 µM
  TGI: > 100 µM
[13]
  GI50: 33.7 µM and > 100 µM
  TGI: > 100 µM
[14]
  TGI: > 100 µM
[15]
  TGI: > 100 µM
[16]
  TGI: > 100 µM
[17]
  TGI: > 100 µM
[18]
  TGI: > 100 µM
[19]
  TGI: > 100 µM
[20]
  TGI: > 100 µM
[21]
  TGI: > 100 µM
[22]
  TGI: > 100 µM
[23]
  TGI: > 100 µM
[54]
  TGI: > 100 µM
[55]
  GI50: 47 µM and > 100 µM
  TGI: > 100 µM
[24]
  TGI: > 100 µM
[25]
  TGI: > 100 µM
[27]
  GI50: 41.5 µM and > 10 µM
  TGI: > 100 µM
[28]
  TGI: > 100 µM
[29]
  TGI: > 100 µM
[30]
  GI50: 33.8 µM and > 100 µM
  TGI: 99.2 µM and > 100 µM
[31]
  GI50: > 100 µM
  TGI: > 100 µM
[32]
  TGI: > 100 µM
[59]
  GI50: > 100 µM and 12 µM
  TGI: > 100 µM
[33]
  TGI: > 100 µM
[34]
  TGI: > 100 µM
[35]
  TGI: > 100 µM
[36]
  TGI: > 100 µM
[37]
  TGI: > 100 µM
[57]
  TGI: > 100 µM
[38]
  TGI: > 100 µM
[39]
  TGI: > 100 µM
[40]
  TGI: > 100 µM
[41]
  GI50: 46.5 µM and > 100 µM
  TGI: > 100 µM
[42]
  TGI: > 100 µM
[43]
  TGI: > 100 µM
[44]
  TGI: > 100 µM
[45]
  TGI: > 100 µM
[46]
  TGI: > 100 µM
[47]
  TGI: > 100 µM
[58]
  TGI: > 100 µM
[48]
  TGI: > 100 µM
[49]
  GI50: 23.6 µM and > 100 µM
  TGI: 61.2 µM and > 100 µM
[50]
  GI50: 22.1 µM and > 100 µM
  TGI: > 100 µM
[51]
  TGI: > 100 µM
[52]
  TGI: > 100 µM
[53]
  TGI: > 100 µM
